Results published in US5374733A, “Sweetening agent derived from L-aspartic or L-glutamic acid” (priority 1989, dated 1994).
Where two headings read alike, the source gives them in different places. Peptide text beside a SMILES is read from it.

What was measured:
[1] = Stability: accelerated ageing in aqueous solution at pH 3 and 70° C., remaining product by HPLC (half-life); type: physicochemical; conditions: pH 3, 70° C.
Description: The stability of the compounds of the invention, in particular those containing the L-glutamyl residue, is very high and can in certain cases be about three hundred times greater than that of the compounds of the prior art.
The stability of the compounds of the prior art and those of the invention is measured using high performance liquid chromatography to determine the amount of product remaining after accelerated ageing in an acid medium (phosphate buffer at pH 3) and at high temperature (70° C.). Under these experimental conditions, measurement of the half-life (time corresponding to 50% degradation) makes it possible to evaluate the potential stability of the compounds tested in this way. A compound of low stability will have a very short half-life of only a few hours, whereas a very stable compound will have a half-life of several tens of days, as is the case, for example, of compounds (5) and (6) of the invention, which have a half-life of about 60 days (FIG. 1).

[2] = cited from earlier work
[3] = Sweetening potency: taste comparison by a team of eight experienced people with a sucrose reference solution; conditions: weight basis
Description: The sweetening potency of the compounds described in the Examples was evaluated by a team of eight experienced people. This is done by comparing the taste of the compounds, in aqueous solution at variable concentrations, with a 2%, 5 % or 10 % reference solution of sucrose. The sweetening potency of the test compound compared with sucrose then corresponds to the weight ratio between the compound and sucrose for equal sweetening intensity, i.e. when the sweet tastes of the solution of the test compound and the reference solution of sucrose are considered, by a majority of people, to have the same sweetening intensity.
Summary Table 3 below gives, by way of examples, a list of a few compounds obtained by experimental protocols similar to those described above, which those skilled in the art will easily find, together with their relative sweetening potency (SP), evaluated on a weight basis, compared with a 2% aqueous solution of sucrose. When the groups R1, R2 and R3 are different, the configuration of the asymmetric carbon to which they are bonded (carbon marked with an asterisk) is designated according to the conventional rules of stereochemistry using the R/S system: R, S or, when both configurations coexist in the same compound, RS.

[4] = phosphate buffer, pH 3, accelerated ageing, read-out: half-life (converted)
[5] = prior art and aspartame, sucrose concentration not given
[6] = phosphate buffer, pH 3, accelerated ageing, prior art compounds, read-out: half-life (converted)
[7] = Table 2, EP-A-0.338.946, sucrose concentration not stated

SMILES	stability (in words) ([1]; accelerated ageing)	half-life [1, 4]	sweetening potency [2, 5]	SP [2, 7]	also measured
COC(=O)[C@H](Cc1ccccc1)NC(=O)[C@@H](N)CC(=O)O [aspartame, reference compound] (H-Asp-Phe-OMe)	relatively low stability	24 h	180 times that of sucrose	–	–
N#Cc1ccc(NC(=O)[C@H](CC(=O)O)NC(=O)c2ccccc2)cc1 [compound (3)]	–	–	720 times that of sucrose	–	half-life [1, 6]: ~8 h; sweetening potency (SP) ([2]; JP-A-87-252754, text, by comparison with a 5% solution of sucrose): 720 times that of sucrose; SP ([2]; Table 1, JP-A-87-252754, by comparison with a 5% solution of sucrose): 720 times that of sucrose
N#Cc1ccc(NC(=O)[C@H](CC(=O)O)NC(=O)C(F)(F)F)cc1 [compound (1)]	–	–	3000 times that of sucrose	–	half-life [1, 6]: ~15 h; sweetening potency ([2]; prior art, by comparison with a 2% solution of sucrose): 3000 times that of sucrose
N#Cc1ccc(NC(=O)[C@H](CC(=O)O)NC=O)cc1 [compound (2), reference compound]	–	–	40 times that of sucrose	–	half-life [1, 6]: ~20 h
N#Cc1ccc(NC(=O)[C@H](CC(=O)O)NCc2ccccc2)cc1 [compound (4)]	–	~48 h	1000 times that of sucrose	1000	–
CCCCCCN[C@@H](CC(=O)O)C(=O)Nc1ccc(C#N)cc1 [CH3 (CH2)4 CH2/1/4-CN--C6 H4]	–	–	–	600	–
CCCCCN[C@@H](CCC(=O)O)C(=O)Nc1ccc(C#N)cc1 [CH3 (CH2)3 CH2/2/4-CN--C6 H4]	–	–	–	1500	–
CCCC=CCN[C@@H](CCC(=O)O)C(=O)Nc1ccc(C#N)cc1 [CH3 (CH2)2 CH=CHCH2/2/4-CN--C6 H4]	–	–	–	3000	–
N#Cc1ccc(NC(=O)[C@H](CCC(=O)O)NCCCc2ccccc2)cc1 [C6 H5 CH2 CH2 CH2/2/4-CN--C6 H4]	–	–	–	800	–
N#Cc1ccc(NC(=O)[C@H](CC(=O)O)NCC2CCCCC2)cc1 [c-C6 H11 CH2/1/4-CN--C6 H4]	–	–	–	200	–
N#Cc1ccc(NC(=O)[C@H](CCC(=O)O)NCc2ccccc2)cc1 [C6 H5 CH2/2/4-CN--C6 H4]	–	–	–	20	–

More lines, main results first:

stability (in words) ([1]; accelerated ageing)	half-life [1, 4]	SMILES	sweetening potency [2, 5]	SP [2, 7]	also measured
excellent	~1680 h	CCCCC(C)(C)C(=O)N[C@@H](CCC(=O)O)C(=O)Nc1ccc(C#N)nc1 [Example 2, N-(2,2-dimethylhexanoyl)-alpha-L-glutamyl-5-aminopyridine-2-carbonitrile]	–	–	–
very high	~1440 h	C[C@@H](Oc1ccccc1)C(=O)N[C@@H](CCC(=O)O)C(=O)Nc1ccc(C#N)nc1 [Example 3, N-[(R)-2-phenoxypropanoyl]-alpha-L-glutamyl-5-aminopyridine-2-carbonitrile]	–	–	–
excellent	–	CCCC[C@H](C)C(=O)N[C@@H](CCC(=O)O)C(=O)Nc1ccc(C#N)nc1 [Example 1, N-[(S)-2-methylhexanoyl]-alpha-L-glutamyl-5-aminopyridine-2-carbonitrile]	–	–	half-life ([1]; accelerated ageing): about 60 days
excellent	> 1440 h	CCCC[C@H](C)C(=O)N[C@@H](CCC(=O)O)C(=O)Nc1ccc(C#N)cc1 [Example 4, N-[(S)-2-methylhexanoyl]-alpha-L-glutamyl-4-aminophenylcarbonitrile]	–	–	SP (relative sweetening potency) ([3]; Table 3, compared with a 2% aqueous solution of sucrose): 9000; sweetening potency ([3]; by comparison with a 2% solution of sucrose): ~9000 times that of sucrose
high stability	~1440 h	CCCC[C@H](C)C(=O)N[C@@H](CCC(=O)O)C(=O)Nc1ccc(C#N)nc1 [(5)]	–	–	–
